Reference: patent US9315482B2, “Derivatives useful as antiviral agents” (priority 2010, dated 2016)
Read-outs that look alike come from different tables or passages of the source.

Legend:
measles virus (MV) = assay: Inhibition of measles virus replication in HEK-293T cells, recombinant measles virus expressing luciferase (MV-Luc); settings: for in vitro replication of measles virus expressing luciferase: Example 33, HEK-293T cells, FIG. 7; for in vitro replication of measles virus expressing luciferase / in vitro replication of measles virus (luciferase activity): 48 h; for in vitro replication of the measles virus (MV) (luciferase activity) / in vitro replication of measles virus (MV) (luciferase activity): MV-Luc; for in vitro replication of measles virus (MV) (luciferase activity): Example 37, HEK-293T cells, FIG. 11B; for in vitro replication of measles virus (luciferase activity): Example 32, HEK-293T cells, 1 M.O.I., 20, 10, 5 μg/ml, FIG. 6
[1] = Metabolic stability over human liver microsomes; assay type: in vitro ADME; settings: human liver microsomes 0.5 mg/mL, 1 mM NADPH, 2.5 μM compound, 37 °C
Method: The metabolic stability of compounds DD771 and GAC50 has been measured over human liver microsomes
Incubation (n=2) • A solution comprising each compound is prepared at a concentration of 1 mM in DMSO. • Said solution is diluted 1/100 in a phosphate buffer containing 0.5 mg/mL of human liver microsomes, 1 mM NADPH and 5 mM MgCl2.
The final concentration of each compound in the assay is 2.5 μM (0.25% de DMSO). • After homogenization (30 s), 50 μL are taken and mixed to 50 μL acetonitrile in order to precipitate the proteins present in the medium and to solubilise the compound. • The mixture is vortexed during 3 min then sonicated during 3 min and finally centrifuged during 10 min at 15 000 g and 4° C. • The same treatment is done at times 15, 30, 45 and 60 minutes. • The supernatants are injected and analysed by LC-MS/MS following standard method. • In parallel, incubation is carried out and in duplicate by substituting the co-factor NADPH by an equivalent buffer volume. • A sample is taken at t=60 min only.
Analyse LC-MS/MS: • All the samples are analysed by UHPLC coupled to a triple quadruple Shimadzu LC-MS 3080.
Calculations: • Half life: […] • Intrinsec clearance: CLint=V×ln2/t1/2
k: disappearance rate constant (min^−1)
V=incubation volume/protein mass (μL/mg)

[2] = tested on: dengue virus (serotype 4); assay: Inhibition of dengue virus replication in HEK-293T cells, glycoprotein immunostaining; assay type: cell-based; settings: 0.1 M.O.I., 5, 10, 20 μg/ml, 72 h, FIG. 2
From the text: Culture medium was removed, and cells were fixed in 90% acetone. Finally, infected cells were stained for dengue virus glycoprotein expression using a 1/1000 dilution of a specific antibody (clone 1H10-6; Millipore) in PBS+5% goat serum.

[3] = tested on: human parainfluenza virus type 3 (hPIV3); assay: Inhibition of human parainfluenza virus type 3 in HEK-293T cells, glycoprotein immunostaining; assay type: cell-based; settings: 1 M.O.I., 2.5, 5, 10, 20 μg/ml, 48 h, FIG. 3
From the text: Culture medium was removed, and cells were fixed in 90% acetone. Infected cells were stained with a FITC-conjugated monoclonal antibody (17-038; Argene) to detect the virus glycoprotein (green fluorescence). Cells were counterstained with Evans blue (red fluorescence).

RSV A2 = assay: Inhibition of human respiratory syncytial virus in MRC5 cells, flow cytometry (RSV A2); assay type: cell-based; settings: M.O.I of 1, 20, 10 μg/ml, 48 h, FIG. 4
Method: (§1) After 24 h, cell culture medium was removed, and cells were incubated for at 37° C. in the presence RSV A2 or RSV B1 at a M.O.I of 1. […] After 48 h, cells were harvested, treated with Cytofix/Cytoperm fixation/permeabilization solution (Becton-Dickinson), and stained with anti-H antibodies (ab20391, Abeam) to detect the virus glycoprotein. The percentage of infected cells was determined by flow cytometry analysis. Interferon beta (IFN-β) was used as a reference.

RSV B1 = assay: Inhibition of human respiratory syncytial virus in MRC5 cells, flow cytometry (RSV B1); assay type: cell-based; settings: M.O.I of 1, 20, 10 μg/ml, 48 h, FIG. 4
Method: as §1

coxsackievirus B3 = assay: Inhibition of coxsackievirus B3 in HEK-293T cells, virus titers by TCID50; assay type: cell-based; settings: 0.1 M.O.I., 10 μg/ml, 24 h, FIG. 5
Method: Finally, supernatants were harvested, and virus titers were determined by TCID50 (Tissue Culture Infecting Dose) on vera cells.

[4] = tested on: ISRE-luciferase construct; assay: Stimulation of the ISRE-luciferase construct; assay type: cell-based; settings: selection screen
[5] = tested on: herpes simplex virus 1 (HSV1); assay: Antiviral activity against herpes simplex virus 1; assay type: cell-based; settings: DNA virus
[6] = tested on: herpes simplex virus 2 (HSV2); assay: Antiviral activity against herpes simplex virus 2; assay type: cell-based; settings: DNA virus
RNA viruses = assay: Antiviral activity against nine RNA viruses (summary); settings: 2.5 to 20 μg/ml
HEK-293T cells [7] = assay: Cellular toxicity in HEK-293T cells (intracellular ATP, CellTiter-Glo); settings: for cellular toxicity (intracellular ATP, CellTiter-Glo): HEK-293T cells, FIG. 12C
West-Nile virus (WNV) = assay: Inhibition of West-Nile virus (WNV) in HEK-293T cells, glycoprotein immunostaining; settings: M.O.I.=1, compounds at 5 μg/ml, FIG. 1
[8] = tested on: human coronavirus 229E (229E); assay: Inhibition of human coronavirus 229E in MRC5 cells, spike glycoprotein immunostaining; settings: M.O.I.=0.01, compounds at 20 μg/ml, FIG. 1
HEK-293T cells [9] = tested on: HEK-293T cells
[10] = Example 34, HEK-293T cells, 48 hours, FIG. 8
[11] = Example 36, HEK-293T cells, 24 hours, FIG. 10

COc1cccc(-c2coc3c2C(=O)CCC3)c1
melting point: 79 to 80 °C

O=C1CCCc2occ(-c3cccc([N+](=O)[O-])c3)c21
melting point: 94 to 95 °C

CC1(C)CC(=O)c2c(-c3cccc(Cl)c3)coc2C1
melting point: 104 to 105 °C

O=C1CCCC2=C1C(c1ccccc1Cl)C([N+](=O)[O-])O2 (centres unmarked)
melting point: 162 to 163 °C

O=C1CCCc2occ(-c3cccc(F)c3)c21
melting point: 65 to 66 °C

O=C1CCCc2occ(-c3cccc(I)c3)c21 [GAC25, 3-(3-iodophenyl)-6,7-dihydro-5H-benzofuran-4-one]
melting point: 135 to 136 °C | in vitro replication of measles virus expressing luciferase (measles virus (MV)): blocked | in vitro replication of the measles virus (MV) (luciferase activity) (measles virus (MV); [10]): blocked

C=Cc1cccc(-c2coc3c2C(=O)CCC3)c1 [GAC50, 3-(3-ethenylphenyl)-6,7-dihydro-5H-benzofuran-4-one]
half-life at 2.5 μM [1]: 11.3 min | microsomal CLint at 2.5 μM ([1]; read-out: Intrinsic Clearance): 49.1 µL/min/mg | melting point: 88 to 89 °C | in vitro replication of the measles virus (MV) (luciferase activity) (measles virus (MV); [10]): blocked | in vitro replication of measles virus (MV) (luciferase activity) (measles virus (MV); 24 hours): blocked

O=C1CCCc2occ(-c3cccc(Cl)c3)c21 [Example 129-G03, 3-(3-chlorophenyl)-6,7-dihydro-5H-benzofuran-4-one]
in vitro replication of dengue virus (serotype 4) [2]: blocked | in vitro replication of human parainfluenza virus type 3 [3]: blocked | in vitro replication of hRSV serotype A2 (percentage of infected cells) (RSV A2): blocked | in vitro replication of hRSV serotype B1 (percentage of infected cells) (RSV B1): blocked | in vitro production of coxsackievirus B3 (virus titers by TCID50) (coxsackievirus B3): blocked | ability to stimulate the ISRE-luciferase construct [4]: ability to stimulate the ISRE-luciferase construct | effects against HSV1 [5]: no effects | effects against HSV2 [6]: no effects | melting point: 87 to 88 °C | cytopathic effects at concentrations blocking RNA virus replication (RNA viruses): no detectable cytopathic effects | cellular toxicity (intracellular ATP, CellTiter-Glo) (HEK-293T cells [7]): acceptable cytotoxicity | cytotoxic effects on HEK-293T cells (HEK-293T cells [7]; selection screen): absence of cytotoxic effects | in vitro replication of WNV (glycoprotein expression by immunostaining) (West-Nile virus (WNV)): blocked | in vitro replication of 229E (spike glycoprotein expression by immunostaining) [8]: blocked | in vitro replication of measles virus (luciferase activity) (measles virus (MV)): blocked | in vitro replication of measles virus expressing luciferase (measles virus (MV)): blocked | in vitro replication of the measles virus (MV) (luciferase activity) (measles virus (MV); [10]): blocked | in vitro replication of the measles virus (MV) (luciferase activity) (measles virus (MV); [11]): blocked | in vitro replication of measles virus (MV) (luciferase activity) (measles virus (MV); 24 hours): blocked

COc1ccc(Cl)cc1C1C2=C(CCCC2=O)OC1[N+](=O)[O-] (centres unmarked)
melting point: 171 to 172 °C

3-(1H-5-chloroindol-3-yl)-2-nitro-2,3-dihydrofuro[3,2-c]chromen-4-one [DD771]
Half life [1]: No significative metabolism | Intrinsic Clearance [1]: No significative metabolism | cellular toxicity (intracellular ATP, CellTiter-Glo) (HEK-293T cells [9]): acceptable cytotoxicity | in vitro replication of the measles virus (MV) (luciferase activity) (measles virus (MV); [11]): blocked | in vitro replication of measles virus (MV) (luciferase activity) (measles virus (MV); 24 hours): blocked

O=c1oc2ccccc2c2c1C(c1c[nH]c3ccccc13)C([N+](=O)[O-])O2 (centres unmarked) [Example 123-G05, 3-(1H-Indol-3-yl)-2-nitro-2,3-dihydrofuro[3,2-c]chromen-4-one]
in vitro replication of dengue virus (serotype 4) [2]: blocked | in vitro replication of human parainfluenza virus type 3 [3]: blocked | in vitro replication of hRSV serotype A2 (percentage of infected cells) (RSV A2): blocked | in vitro replication of hRSV serotype B1 (percentage of infected cells) (RSV B1): blocked | in vitro production of coxsackievirus B3 (virus titers by TCID50) (coxsackievirus B3): blocked | ability to stimulate the ISRE-luciferase construct [4]: ability to stimulate the ISRE-luciferase construct | effects against HSV1 [5]: no effects | effects against HSV2 [6]: no effects | melting point: 248 to 250 °C (dec.) | cytotoxic effects on HEK-293T cells (HEK-293T cells [9]): absence of cytotoxic effects | cytopathic effects at concentrations blocking RNA virus replication (RNA viruses): no detectable cytopathic effects | cellular toxicity (intracellular ATP, CellTiter-Glo) (HEK-293T cells [7]): acceptable cytotoxicity | in vitro replication of WNV (glycoprotein expression by immunostaining) (West-Nile virus (WNV)): blocked | in vitro replication of 229E (spike glycoprotein expression by immunostaining) [8]: blocked | in vitro replication of measles virus (luciferase activity) (measles virus (MV)): blocked

COc1ccc(Cl)cc1-c1coc2c1C(=O)CCC2
melting point: 136 to 137 °C

O=C1CCCc2occ(-c3cc(Cl)cc(Cl)c3)c21
melting point: 105 to 106 °C

3-(1H-5-methylindol-3-yl)-2-nitro-2,3-dihydrofuro[3,2-c]chromen-4-one [DD778]
in vitro replication of the measles virus (MV) (luciferase activity) (measles virus (MV); [11]): blocked

CC1CC(=O)c2c(-c3cccc(Cl)c3)coc2C1 (centres unmarked)
melting point: 121 to 122 °C

O=C1CCCc2occ(-c3ccc(Cl)c(Cl)c3)c21
melting point: 122 to 123 °C

O=C1CCCc2occ(-c3cccc(Br)c3)c21
melting point: 106 to 107 °C

3-(1H-5-fluoroindol-3-yl)-2-nitro-2,3-dihydrofuro[3,2-c]chromen-4-one [DD776]
in vitro replication of the measles virus (MV) (luciferase activity) (measles virus (MV); [11]): blocked

CC(=O)C1=C(C)OC([N+](=O)[O-])C1c1cccc(Cl)c1 (centres unmarked)
melting point: 84 to 85 °C

ON=C1CCCc2occ(-c3cccc(Cl)c3)c21
melting point: 157 to 158 °C

O=C1CCCc2occ(-c3ccccc3Cl)c21
melting point: 147 to 148 °C

O=C1CCCc2occ(-c3ccc(Cl)cc3)c21
melting point: 104 to 105 °C

COc1cc(-c2coc3c2C(=O)CCC3)cc(OC)c1OC
melting point: 140 to 141 °C
